This is an account of results in patent US10293027B2, “Methods for treating metabolic disorders using FGF” (Salk Institute for Biological Studies, priority 2010, dated 2019).

Test [1] relates to ob/ob mice. The test can be described thus: Single s.c. injection of human FGF1 or other FGFs, blood glucose in ob/ob mice (Examples 13, 14). The following applies: 0.5 mg/kg s.c. In kind it is in vivo, mouse. The procedure:
FIG. 26. Human recombinant FGF-1 is effective in mice.
FIG. 27. Comparison of FGF1, FGF2, FGF9, and FGF10 effects. Single subcutaneous injection of FGFs (0.5 mg/kg) in ob/ob mice.
As human recombinant FGF-1 is already being used in the clinic, the present methods of using it to treat metabolic disorders offer a straightforward regulatory path to treatment.
As explained above, the FGF family of factors bind to members of the FGFR family of receptors with different specificities. FGF-1 binds preferentially to FGFR1 and FGFR4, and can be internalized into a cell expressing these receptors. To determine if other FGF proteins have similar metabolic effects as FGF-1, we tested blood glucose in ob/ob mice treated with FGF-2, FGF-9, and FGF-10 (0.5 mg/kg s.c.). This combination of FGF proteins binds to the spectrum of FGFRs.

Test [2] relates to ob/ob male mice. The test can be described thus: Daily FGF-1 or rosiglitazone treatment of ob/ob mice: fed blood glucose and body composition (Example 5). In kind it is in vivo, mouse. The following applies: fed ob/ob male mice, one hour after treatment; FGF-1 0.5 mg/kg/day s.c., TZD 5 mg/kg/day p.o.; about 400 mg/dl before treatment. As for the experimental part: FIGS. 7A-7H. FGF-1 injection studies in rodents. (A) Fed blood glucose in ob/ob male mice treated with FGF-1 (0.5 mg/kg, s.c.), rosiglitazone (TZD, 5 mg/kg, p.o.), or vehicle. FGF-1 was administered once daily, and blood glucose levels were measured at day 0 (basal levels before FGF-1 injection), day 3, and day 6, 1 hour after injection. The values (±SE) shown are the average of the measurements of 5 animals in a group; (B) Sustained glucose lowering effects of FGF-1: Fed blood glucose levels in ob/ob mice at indicated time points after the last FGF-1 injection at day 6. (C-H): 72 hrs after the sixth dose, another dose was given and effects of FGF-1 and TZD on (C) body weight, (D) total body fat, (E) lean weight, (F) weight gain, (G) liver weight, and (H) heart weight were determined.
In Example 5, ob/ob male mice (8 wk old) were randomized into three groups and treated with daily subcutaneous (s.c.) injections of recombinant mouse FGF-1 (0.5 mg/kg in PBS), oral rosiglitazone (TZD, 5 mg/kg in 0.5% carboxymethyl cellulose), or vehicle. Blood glucose levels were measure in fed animals one hour after treatment. Total body composition analysis was performed using an EchoMRI-100™ (Echo Medical Systems, LLC).
Eight-week-old male ob/ob mice were treated with recombinant mouse FGF-1 (0.5 mg/kg/day, s.c. in 250 μl), rosiglitazone (TZD, 5 mg/kg/day, p.o. in 300 μl), or vehicle control (s.c. vehicle control 0.9% NaCl, 250 μl/mouse; p.o. vehicle control 0.5% CMC, 300 μl/mouse). Blood glucose was measured one hour after treatment at day 3 and day 6 using a standard protocol. (FIG. 7A).
Before treatment, all groups were severely hyperglycemic, as indicated by blood glucose levels of about 400 mg/dl. […] At 6 days, blood glucose levels were even further reduced to around 130-140 mg/dl for both groups. After the sixth dose, blood glucose levels were monitored for another 72 hrs. During this period, both FGF-1- and TZD-treated cohorts maintained normoglycemic levels (<140 mg/dl) for at least 48 hrs (FIG. 7B). At 72 hrs after the sixth dose, a final dose was given, and 12 hrs later, a total body composition analysis was performed by MRI followed by necropsy.

On to “FGF2: other FGF protein tested for comparison with FGF-1 [reference compound]”, for which, in test [1], the “blood glucose in ob/ob mice after a single s.c. injection” value (from here on “blood glucose in ob/ob mice”) was “Only FGF1 has glucose normalizing effects”.
“human FGF1: human recombinant FGF-1; human protein is 155 amino acids, SwissProt P05230.1”: the “blood glucose in ob/ob mice” value is “normalizes blood glucose” in test [1] and “can effectively reduce glucose levels” in test [1] (listed as hrFGF-1).
Consider `CN(CCOc1ccc(CC2SC(=O)NC2=O)cc1)c1ccccn1` (centres unmarked) [rosiglitazone, reference compound], for which the “blood glucose levels at day three” value in test [2] is “about 200 mg/dl”.

B1: FGF10: other FGF protein tested for comparison with FGF-1 (protein, UniProt O15520 38-208, looked up)
Fibroblast growth factor 10: QALGQDMVSPEATNSSSSSFSSPSSAGRHVRSYNHLQGDVRWRKLFSFTKYFLKIEKNGKVSGTKKENCPYSILEITSVEIGVVAVKAINSNYYLAMNKKGKLYGSKEFNNDCKLKERIEENGYNTYASFNWQHNGRQMYVALNGKGAPRRGQKTRRKNTSAHFLPMVVHS
As for B1, in test [1], the “blood glucose in ob/ob mice” value is recorded as “Only FGF1 has glucose normalizing effects”.
